The text below walks through data of patent US5200412A, “Heterobicyclic containing benzene sulfonamides which are platelet activating factor antagonists” (British Bio-Technology Limited, priority 1990, dated 1993).

Assay [1] has as its system PAF-induced bronchoconstriction. In words: inhibition of PAF-induced bronchoconstriction in the guinea pig. Format: in vivo, Male Dunkin-Hartley guinea-pigs. To be noted: 10 mg/kg p.o., 1 hour before PAF 40 ng/kg/min i.v. infusion. As for the experimental part:
The inhibition of PAF induced bronchoconstriction was measured in anaesthetised artificially ventilated guinea-pigs (450-500 g) using a modified version of the Konzett-Rossler technique (Konzett M and Rossler R, Naunym-Schmiedeb. Arch. Exp. Pathol. Pharmakol., 1940, 197, 71) Male Dunkin-Hartley guinea-pigs were anaesthetised with urethane, 1.6 g/kg. Through a midline neck incision, the trachea was cannulated and the animal ventilated with a constant tidal volume set between 5 and 15 ml, to give a tracheal inflation pressure of 15 mmHg at a rate of 40 per minute. A carotid artery was cannulated for the measurement of blood pressure and heart rate and both jugular veins were cannulated, one for the infusion of PAF and the other for the administration of test compounds. PAF, 40 ng/kg/min in saline with 0.25% bovine serum albumin, was infused i.v. to produced a 100% increase in tracheal inflation pressure, and bronchoconstrictor effects were determined. Test compounds were administered p.o. (10 mg/kg) 1 hour before the infusion of PAF was started whilst the animals were conscious.

For assay [2], the system named is PAF-induced hypotension. In words: reversal of PAF-induced hypotension in the rat. It counts as in vivo, Male Sprague-Dawley rats. To be noted: iv, anaesthetised rats, i.v. bolus, PAF 100 ng/kg/min i.v. infusion, read-out: ED50 (50% reversal of the hypotensive PAF response). How it is done: (§1) Compounds of general formula I inhibit PAF-induced functions in both the cellular and tissue levels by changing the PAF binding to its specific receptor site. The ability of compounds of general formula I to inhibit the binding of PAF to its specific receptor binding site on human platelet plasma membranes was measured according to Pharmacological Example 1. The ability of compounds of general formula I to reverse the hypotension caused by an infusion of PAF in rats was measured according to Pharmacology Example 2.
Male Sprague-Dawley rats (300-350 g) were anaesthetised with a mixture of sodium pentobarbitone, 22.5 mg/kg and thiopental 62.5 mg/kg. Through a midline incision in the neck, the trachea was cannulated and the animals, breathed spontaneously. A carotid artery was cannulated for the measurement of blood pressure and this signal was used to trigger a rate meter to measure heart rate. Both jugular veins were cannulated: one for the infusion of PAF and the other for the bolus administration of test compounds.
PAF, 100 ng/kg/min was infused i.v. until a sustained fall in mean blood pressure of 50 mmHg was achieved. […] Also presented in Table 2 is the result for a comparative example (N-cyclohexyl-N-methyl-4-(1H-imidazo[4,5-c]pyridylmethyl)benzamide. This compound (a PAF antagonist described in EP-A-0260613) is not within the scope of the invention.

Assay [3] has as its system endotoxin induced hypotension. Description: reversal of endotoxin induced hypotension in the rat. Format: in vivo. To be noted: iv, read-out: ED50 (50% reversal of the endotoxin induced hypotension). As for the experimental part: Rats were anaesthetised with a mixture of sodium pentobarbitone, 22.5 mg/kg, and thiopental, 62.5 mg/kg. The animals breathed spontaneously, air enriched with oxygen, and a carotid artery was cannulated for the measurement of blood pressure and heart rate. […] Test compounds were administered i.v. via the other jugular vein as a bolus.

For assay [4], the target named is T1, PAF receptor (Homo sapiens, UniProt P25105).
T1 construct: Platelet concentrates were obtained from a hospital blood bank; from tissue; host or cells: human platelets (hospital blood bank concentrates), lysed platelet membrane fraction
T1 sequence (P25105 whole entry): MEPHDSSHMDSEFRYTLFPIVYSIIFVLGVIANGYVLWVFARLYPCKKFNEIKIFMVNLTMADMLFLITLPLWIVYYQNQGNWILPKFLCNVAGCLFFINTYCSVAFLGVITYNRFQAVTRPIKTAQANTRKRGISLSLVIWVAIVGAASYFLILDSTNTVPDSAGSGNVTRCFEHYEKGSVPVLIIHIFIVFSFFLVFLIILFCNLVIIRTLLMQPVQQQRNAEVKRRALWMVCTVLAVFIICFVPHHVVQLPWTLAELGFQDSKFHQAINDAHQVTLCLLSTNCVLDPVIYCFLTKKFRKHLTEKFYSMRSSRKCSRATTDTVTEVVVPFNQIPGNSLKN
In words: inhibition of 3H-PAF binding to human platelet plasma membrane. The following applies: human platelet membranes, 0.5 nM 3H-PAF, 1 hour incubation at 0° C., pH 7.0. As for the experimental part: as §1
The inhibition of 3H-PAF binding to human platelet plasma membrane by compounds of general formula I was determined by isotopic labelling and filtration techniques. Platelet concentrates were obtained from a hospital blood bank. These platelet concentrates (500-2500 ml.) were centrifuged at 800 rpm for 10 minutes in a SORVALL RC3B centrifuge to remove the red blood cells present. (The word SORVALL is a trade mark ) The supernatant was subsequently centrifuged at 3,000 rpm in a SORVALL RC3B centrifuge to pellet the platelets present. The platelet rich pellets were resuspended in a minimum volume of buffer (150 mM NaCl, 10 mM Tris, 2 mM EDTA, pH 7.5) and layered onto Ficoll-Paque gradients, 9 ml platelet concentrate to 2 ml Ficoll, and centrifuged at 1,900 rpm for 15 minutes in a SORVALL RT6000 centrifuge. This step removes the residual red blood cells and other nonspecific material such as lymphocytes from the preparation. The platelets which form a band between the plasma and the Ficoll were removed, resuspended in the above buffer and centrifuged at 3,000 rpm for 10 minutes in a SORVALL RT6000 centrifuge. The pelleted platelets were resuspended in buffer (10 mM Tris, 5 mM MgCl2, 2 mM EDTA, pH 7.0), snap freezed in liquid N2 and allowed to thaw slowly at room temperature in order to lyse the platelets. The latter step was repeated at least 3 times to ensure proper lysis. The lysed platelets were centrifuged at 3,000 rpm for 10 minutes in a SORVALL RT6000 centrifuge and resuspended in buffer. The latter step was repeated twice in order to remove any cytoplasmic proteins which may hydrolyse the platelet activating factor (PAF) receptor The prepared platelet membranes may be stored at -70° C. After thawing the prepared membranes were centrifuged in a SORVALL RT6000 at 3,000 rpm for 10 minutes and resuspended in assay buffer.
The assay was conducted by preparing a series of Tris-buffered solutions of the selected antagonist of predetermined concentrations. Each of these solutions contained ^3 H-PAF (0.5 nM; 1-O-[^3 H]octadecyl-2-acetyl-sn-glycero-3-phosphoryl choline with a specific activity of 132 Ci/mmol), […], a known amount of the test antagonist, and a sufficient amount of Tris-buffer solution (10 mM Tris, 5 mM MgCl2, pH 7.0, 0.25% BSA) to make the final volume 1 ml. Incubation was initiated by the addition of 100 μg of the isolated membrane fraction to each of the above solutions at 0° C. Two control samples, one (Cl) which contained all the ingredients described above except the antagonist and the other (C2) contains Cl plus a 1000-fold excess of unlabelled PAF, were also prepared and incubated simultaneously with the test samples. After 1 hour incubation, each solution was filtered rapidly under vacuo through a WHATMAN GF/C glass fibre filter in order to separate unbound PAF from bound PAF. (The word WHATMAN is a trade mark.) The residue in each case was rapidly washed 4 times with 5 ml cold (4° C.) Tris-buffer solution. Each washed residue was dried under vacuum on a sampling manifold and placed into vials containing 20 ml of OPTIPHASE MP scintillation fluid and the radioactivity counted in a liquid scintillation counter. […]

The structures appear in SMILES notation.

As for `C=CCN([C@@H](CC(C)C)C(=O)OCC)S(=O)(=O)c1ccc(Cn2c(C)nc3cnccc32)cc1` [60(B), N-Allyl-N-4-(1H-2-methylimidazo[4,5-c]pyridylmethyl)phenylsulphonyl-L-leucine ethyl ester], the “% Inhibition of PAF-induced bronchoconstriction” value (“% Inhibition” for short) in assay [1] is given as 60%.
As for `Cc1nc2cnccc2n1Cc1ccc(S(=O)(=O)N(C)[C@@H](CC(C)C)C(=O)OC(C)C)cc1` [Example 56B, N-Methyl-N-4-(1H-2-methylimidazo[4,5-c]pyridylmethyl)phenylsulphonyl-L-leucine i-propyl ester], the “% Inhibition” value in assay [1] is 72%. In addition, the ED50 (as a rule, the dose at which the effect has come halfway, by size or by number of responders) in assay [2] is 0.6 µg/kg.
On to `COC(=O)[C@H](CC(C)C)NS(=O)(=O)c1ccc(Cn2c(C)nc3cnccc32)cc1` [Example 32B, N-4-(1H-2-methylimidazo[4,5-c]pyridylmethyl)phenylsulphonyl-L-leucine methyl ester], for which the ED50 in assay [3] was 15.5 µg/kg; in assay [2], 2.1 µg/kg. For the same molecule, in assay [4], the IC50 (usually the concentration at which inhibition is half-maximal) is 8 nM.
Regarding `COC(=O)[C@H](CC(C)C)NS(=O)(=O)c1ccc(Cn2c(C)nc3ccccc32)cc1` [Example 7, N-4-(1H-2-Methylbenzimidazolylmethyl)phenylsulphonyl-L-leucine methyl ester], the ED50 in assay [2] stood at 11.6 µg/kg. In addition, the IC50 in assay [4] stood at 20 nM.
With `COC(=O)[C@H](COCc1ccccc1)NS(=O)(=O)c1ccc(Cn2c(C)nc3ccccc32)cc1` [Example 12, N-4-(1H-2-Methylbenzimidazolylmethyl)phenylsulphonyl-O-benzyl-L-serine methyl ester], the ED50 in assay [2] is 21 µg/kg.
On to `CCOCCOC(=O)[C@H](CC(C)C)NS(=O)(=O)c1ccc(Cn2c(C)nc3ccncc32)cc1` [Example 42A, N-4-(3H-2-Methylimidazo[4,5-c]pyridylmethyl)phenylsulphonyl-L-leucine 2-ethoxyethyl ester], for which, in assay [4], the IC50 was determined as 2 nM. That is a single-digit nanomolar value.
The same measure, in the same setting: in the case of `Cc1nc2cnccc2n1Cc1ccc(S(=O)(=O)N[C@@H](CC(C)C)C(=O)OCCOCc2ccccc2)cc1` [Example 43B, N-4-(1H-2methylimidazo[4,5-c]pyridylmethyl)phenylsulphonyl-L-leucine 2-benzoxyethyl ester] it was 1 nM.
Turning to `CCOC(=O)[C@H](CC(C)C)N(CC(=O)OC(C)(C)C)S(=O)(=O)c1ccc(Cn2c(C)nc3cnccc32)cc1` [69(B), N-t-butoxycarbonylmethyl-N-4-(1H-2-methylimidazo[4,5-c]pyridylmethyl)phenylsulphonyl-L-leucine ethyl ester], the “% Inhibition” value in assay [1] is 60%.
`CCOC(=O)[C@H](CC(C)C)NS(=O)(=O)c1ccc(Cn2c(C)nc3cnccc32)cc1` [Example 35B, N-4-(1H-2-methylimidazo[4,5-c]pyridylmethyl)phenylsulphonyl-L-leucine ethyl ester]: the 50% effective dose (ED50) in assay [3] came out at 2.9 µg/kg. Further, the IC50 in assay [4] worked out at 0.2 nM.
In assay [4], `CCOC(=O)[C@H](CC(C)C)N(C)S(=O)(=O)c1ccc(Cn2c(C)nc3ccccc32)cc1` [Example 54, N-Methyl-N-4-(1H-2-methylbenzimidazolylmethyl)phenylsulphonyl-L-leucine ethyl ester] yielded an IC50 of 3 nM.
With `CN(C(=O)c1ccc(Cn2cnc3cnccc32)cc1)C1CCCCC1` [Comparative Example, N-Cyclohexyl-N-methyl-4-(1H-imidazo[4,5-c]pyridylmethyl)benzamide, reference compound], the ED50 in assay [2] is 150 µg/kg.
Take `CC[C@H](C)[C@H](NS(=O)(=O)c1ccc(Cn2c(C)nc3ccccc32)cc1)C(=O)OC` [Example 6, N-4-(1H-2-Methylbenzimidazolylmethyl)phenylsulphonyl-L-isoleucine methyl ester]: in assay [4], the IC50 came out at 30 nM.
Turning to `CCOC(=O)[C@H](CC(C)C)N(C)S(=O)(=O)c1ccc(Cn2c(C)nc3cnccc32)cc1` [Example 53B, N-Methyl-N-4-(1H-2-methylimidazo[4,5-c]pyridylmethyl)phenylsulphonyl-L-leucine ethyl ester], in assay [1], the “% Inhibition” value stood at 91%. The ED50 in assay [2] was 0.5 µg/kg. The IC50 in assay [4] came to 0.15 nM.
On to `CCCCOC(=O)[C@H](CC(C)C)N(C)S(=O)(=O)c1ccc(Cn2c(C)nc3cnccc32)cc1` [Example 57B, N-methyl-N-4-(1H-2-methylimidazo[4,5-c]pyridylmethyl)phenylsulphonyl-L-leucine n-butyl ester], for which the IC50 in assay [4] worked out at 1 nM.
The same measure, in the same setting: in the case of `CCOC(=O)[C@H](CC(C)C)NS(=O)(=O)c1ccc(Cn2c(C)nc3ccccc32)cc1` [Example 14, N-4-(1H-2-Methylbenzimidazolylmethyl)phenylsulphonyl-L-leucine ethyl ester] it was 15 nM.
